Measurements: patent US20070054927A1, “Fungicidal mixtures” (BASF AKTIENGESELLSCHAFT, priority 2003, published 2007)

Tested on: Plasmopara viticola
Experiment: activity against peronospora of grapevines caused by Plasmopara viticola, protective application
Format: in vivo
Conditions: individual active compound, potted vines Müller-Thurgau, untreated control 71% infection
Experimental: The active compounds, separately or jointly, were prepared as a stock solution comprising 0.25% by weight of active compound in acetone or DMSO. 1% by weight of the emulsifier Uniperol® EL (wetting agent having emulsifying and dispersant action based on ethoxylated alkylphenols) was added to this solution, and the mixture was diluted with water to the desired concentration.
Use example—activity against peronospora of gravevines caused by Plasmopara viticola, protective application
Leaves of potted vines of the cultivar “Müller-Thurgau” were sprayed to runoff point with an aqueous suspension having the concentration of active compound stated below. The next day, the undersides of the leaves were inoculated with an aqueous zoospore suspension of Plasmopara viticola. The grapevines were then initially placed in a water-vapor-saturated chamber at 24° C. for 48 hours and then in a greenhouse at 20-30° C. for 5 days. After this period of time, the plants were again placed in a humid chamber for 16 hours to promote sporangiophore eruption. The extent of the development of the disease on the undersides of the leaves was then determined visually.
The visually determined percentages of infected leaf areas were converted into efficacies in % of the untreated control:
The efficacy (E) is calculated as follows using Abbot's formula: E=(1−α/β)·100 • α corresponds to the fungicidal infection of the treated plants in % and • β corresponds to the fungicidal infection of the untreated (control) plants in %
An efficacy of 0 means that the infection level of the treated plants corresponds to that of the untreated control plants; an efficacy of 100 means that the treated plants were not infected.
The expected efficacies of mixtures of active compounds were determined using Colby's formula (Colby, S. R. “Calculating synergistic and antagonistic responses of herbicide combinations”, Weeds, 15, 20-22, 1967) and compared with the observed efficacies.
Colby's formula: E=x+y−x·y/100 • E expected efficacy, expressed in % of the untreated control, when using the mixture of the active compounds A and B at the concentrations a and b • x efficacy, expressed in % of the untreated control, when using the active compound A at the concentration a • y efficacy, expressed in % of the untreated control, when using the active compound B at the concentration b

For CC1CCN(c2c(-c3c(F)cc(F)cc3F)c(Cl)nc3ncnn23)CC1 [I, 5-chloro-7-(4-methylpiperidin-1-yl)-6-(2,4,6-trifluorophenyl)-[1,2,4]triazolo[1,5-a]pyrimidine], the “Efficacy in % of the untreated control” value (4 ppm in the spray liquor) was 1% and the “Efficacy in % of the untreated control” value (16 ppm in the spray liquor) was 44%.

In the case of CC1(C)CCC(Cc2ccc(Cl)cc2)C1(O)Cn1cncn1 (centres unmarked) [II (metconazole), 5-(4-chlorobenzyl)-2,2-dimethyl-1-[1,2,4]triazol-1-ylmethylcyclopentanol], the “Efficacy in % of the untreated control” value (4 ppm in the spray liquor) is reported as 1% and the “Efficacy in % of the untreated control” value (16 ppm in the spray liquor) is reported as 1%.

With CC1CCN(c2c(-c3c(F)cccc3Cl)c(Cl)nc3ncnn23)CC1 [comparative compound A] the “Efficacy in % of the untreated control” value (4 ppm in the spray liquor) was 0% and the “Efficacy in % of the untreated control” value (16 ppm in the spray liquor) was 15%.

For C[C@H](Nc1c(-c2c(F)cc(F)cc2F)c(Cl)nc2ncnn12)C(F)(F)F [comparative compound B], the “Efficacy in % of the untreated control” value (4 ppm in the spray liquor) was 15% and the “Efficacy in % of the untreated control” value (16 ppm in the spray liquor) was 29%.
